Assay results reported in patent publication US20260306641A1, “HELICASE DEGRADERS” (priority 2023, published 2026).

How the values were obtained:
HaCaT cells = test: DNA damage (gamma-H2AX) and apoptosis (cleaved Parp) immunoblot, HaCaT; format: cell-based, human; settings: 15 μM, 48 hrs
Protocol: (§1) FIGS. 7A-7C depict that CMGi induce DNA damage and selectively reduce tumor cell viability. (FIG. 7A) Cell Titer Glo viability assays for CA1/CMGi sensitivity were performed on 143B (OS), Psn1 (PDAC), and H460 (NSCLC) tumor lines. Novobiocin was tested against 143B cells as a comparison. (FIG. 7B) Immunoblot of chromatin-bound proteins (as indicated) from asynchronous 143B OS cells treated with 10 μM novobiocin or increasing concentrations of CA1 for 24 hrs. (FIG. 7C) Immunoblot of total proteins from Psn1, H460, 143B, and HaCaT cells treated with 5 μM CA1/CMGi or DMSO/novobiocin controls, or HaCaT treated with 15 μM CA1/CMGi (right side). The Psn1 and H460 cells were treated for 24 hrs, and 143B and HaCaT cells were treated for 48 hrs. Probing of blots was done with anti-gamma-H2AX (DNA damage signal) or anti-cleaved-Parp (apoptotic indicator). Anti-GAPDH is a loading control.

[1] = test system: Flag-Mcm2 hCMG and replisome complexes from HEK-293T cells; test: Co-immunoprecipitation, HEK-293T cells expressing Flag-Mcm2; format: biochemical, human; settings: 15 μM, 30 min; Flag IP
Protocol: Nuclear extracts were prepared from synchronized HaCaT cells after releasing into S-phase (at 20 hrs post release) or HEK-293T cells expressing stable Flag-Mcm2 protein (human). Cells from one 10 cm dish were resuspended in […] of Buffer A (10 mM Hepes-KOH pH 7.5, 10 mM KCl, 1.5 mM MgCl2, 0.34 M sucrose, 10% glycerol, protease inhibitors, and 0.1% Triton-X-100) and incubated on ice for 5 min. The nuclear pellet was obtained by centrifugation at 4,000 rpm at 4° C. for 5 min and washed with the Buffer A without Triton X-100. The nuclear extract was obtained by resuspending the nuclear pellet in […] of Buffer A containing 420 mM potassium acetate and 0.01% Triton X-100, and incubating at 4° C. for 1 hr. The final concentration of potassium acetate in nuclear extracts was adjusted to 200 mM for the co-immunoprecipitation assays. For the co-immunoprecipitation assays, […] of indicated antibody [anti-Mcm2, anti-Psf1, or rabbit IgG (Sigma)], or 30 mL of mouse IgG or anti-Flag agarose beads (Sigma), was incubated with […] of nuclear extract at 4° C. for 4 hrs. Protein A/G agarose beads (30 mL, Santa Cruz, sc-2003) were added and incubated for 1 hr with antibodies. […] Beads were washed in the same buffer and analyzed by immunoblotting with indicated antibodies.

[2] = test system: Psn1, H460 and 143B tumor lines; test: DNA damage (gamma-H2AX) and apoptosis (cleaved Parp) immunoblot, tumor lines; format: cell-based, human; settings: 5 μM
Protocol: as §1

[3] = test system: Dbf4-Cdc7 (DDK); Mcm2 S53 and S139; test: Immunoblot of DDK-dependent Mcm2 phosphorylation, HaCaT cells; format: cell-based, human; settings: extended exposure (18 hrs)
Protocol: Immunoblots of total proteins from synchronized HaCaT cells treated with compounds at time of release (0 hr; beginning of G1 phase) and collected after 18 hrs of exposure. (FIG. 5A) DDK-dependent phosphorylation sites on Mcm2 were analyzed with phospho-specific antibodies. (FIG. 5B) Cdk1- and Cdk2-dependent targets (Rb, Cdc6, and PP1α) were analyzed with phospho-specific antibodies.

[4] = test system: hCMG complexes immunoprecipitated from HaCaT cells; test: Co-immunoprecipitation, HaCaT nuclear extract; format: biochemical, human; settings: 15 μM, 30 min
Protocol: Nuclear extracts were prepared from synchronized HaCaT cells after releasing into S-phase (at 20 hrs post release) or HEK-293T cells expressing stable Flag-Mcm2 protein (human). Cells from one 10 cm dish were resuspended in […] of Buffer A (10 mM Hepes-KOH pH 7.5, 10 mM KCl, 1.5 mM MgCl2, 0.34 M sucrose, 10% glycerol, protease inhibitors, and 0.1% Triton-X-100) and incubated on ice for 5 min. The nuclear pellet was obtained by centrifugation at 4,000 rpm at 4° C. for 5 min and washed with the Buffer A without Triton X-100. The nuclear extract was obtained by resuspending the nuclear pellet in […] of Buffer A containing 420 mM potassium acetate and 0.01% Triton X-100, and incubating at 4° C. for 1 hr. The final concentration of potassium acetate in nuclear extracts was adjusted to 200 mM for the co-immunoprecipitation assays. For the co-immunoprecipitation assays, […] of indicated antibody [anti-Mcm2, anti-Psf1, or rabbit IgG (Sigma)], or 30 mL of mouse IgG or anti-Flag agarose beads (Sigma), was incubated with […] of nuclear extract at 4° C. for 4 hrs. Protein A/G agarose beads (30 mL, Santa Cruz, sc-2003) were added and incubated for 1 hr with antibodies. Agarose beads were washed once in Buffer A containing 200 mM potassium acetate and 0.01% Triton X-100 and incubated with 15 μM CA1 or DMSO (same concentration as in CA1 sample) for 30 min. Beads were washed in the same buffer and analyzed by immunoblotting with indicated antibodies.

HPV18-E1 helicase = HPV18-E1 helicase (human papillomavirus 18, UniProt P06789); test: HPV18-E1 helicase assay; format: biochemical, human papilloma virus 18; settings: requires higher CA1 concentrations than CMG
HPV18-E1 helicase, sequence (P06789 305-657): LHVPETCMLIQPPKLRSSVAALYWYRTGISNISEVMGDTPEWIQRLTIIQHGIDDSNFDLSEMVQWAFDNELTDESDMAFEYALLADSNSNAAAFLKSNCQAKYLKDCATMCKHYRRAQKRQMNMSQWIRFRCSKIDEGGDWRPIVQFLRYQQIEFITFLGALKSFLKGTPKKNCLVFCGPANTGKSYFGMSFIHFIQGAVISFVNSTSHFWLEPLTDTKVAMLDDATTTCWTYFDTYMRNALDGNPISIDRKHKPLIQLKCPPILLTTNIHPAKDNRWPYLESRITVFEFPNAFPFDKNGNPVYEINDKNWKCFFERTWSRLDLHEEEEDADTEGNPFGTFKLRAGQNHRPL
Protocol: The HPV16 or HPV18 E1 helicase domain (16E1HD or 18E1HD) was expressed and purified from Sf9 cells by infecting the cells with 2Flag-GST-E1 baculovirus. The cleared cell lysates were prepared as for large T antigen and incubated with Glutathione beads at 4° C. overnight. The bound E1 proteins were eluted from beads with 20 mM reduced glutathione in Q buffer, applied to a Q Sepharose Fast Flow column, and eluted with 0.75 M potassium acetate in Q buffer. Purified E1 proteins were obtained by further incubation with Flag-M2 beads and elution with Flag peptides.
Helicase fork-unwinding assays were performed at 37° C. for 1 hr in 20 μL reaction volumes using 2-4 μl of hCMG (~15-30 fmol), in a buffer consisting of 25 mM Hepes-NaOH (pH 7.5), 5 mM NaCl, 0.5 mM ATP, 10 mM magnesium acetate, 1 mM DTT, 0.1 mg/ml bovine serum albumin (BSA), and ~10 fmol of radiolabeled DNA forks (20). Reactions were terminated with 4 μl of 6× stop solution [50 mM EDTA (pH 8.0), 40% (vol/vol) glycerol, 2% (wt/vol) SDS, and 0.3% bromophenol blue], loaded onto 10% (wt/vol) polyacrylamide gels, resolved at 150 volts in 1×-TBE buffer (89 mM Tris base, 89 mM boric acid, and 2 mM EDTA), dried on filter paper, and analyzed by autoradiography and quantified by PhosphorImager assessment. […]

[5] = test system: CMG proteins in 143B cells; test: Immunoblot of chromatin-bound proteins, asynchronous 143B OS cells; format: cell-based, human; settings: 24 hrs
Protocol: as §1

[6] = test system: bacterial type-2 topoisomerase, gyrase; settings: cited from earlier work
143B cells = test: CellTiter-Glo viability, 143B; format: cell-based, human; settings: 72 hr
Protocol: as §1
Cell viability determinations were performed using CellTiter-Glo Assays (Promega; cat #G7572). Cells were seeded in 96-well plates at a density of ~3×10^3 cells/well and treated with drugs for 72 hr, after which the cells were processed for viability using CellTiter-Glo reagent according to the instructions of the manufacturer. Each drug concentration test was performed using four replicates, and results averaged and plotted on graphs, +/−1 s.d.

DNA Polymerase-theta = settings: higher doses; cited from earlier work

SMILES	gamma-H2AX and Parp cleavage (HaCaT cells)	MCM interactions [1]	Psf1, Cdc45 and Ctf4 association with Flag-Mcm2 [1]	gamma-H2AX and Parp cleavage, tumor lines vs HaCaT [2]	Mcm2 S53 and S139 phosphorylation [3]	Cdc45 association with MCMs ([4]; Mcm2 IP)	MCM complexes ([4]; Mcm2 IP)	Mcm2 and Mcm6 interactions with GINS ([4]; Psf1 IP)	Psf1-3 interactions ([4]; Psf1 IP)	HPV18-E1 helicase sensitivity (HPV18-E1 helicase)	MCM levels ([5]; higher CA1 doses)	RPA levels ([5]; low micromolar CA1)	chromatin-bound levels of Cdc45, Psf1 and Psf2 ([5]; low micromolar CA1)	gyrase inhibition [6]	effect on tumor cell viability (143B cells)	DNA Polymerase-theta inhibition (DNA Polymerase-theta)
CO[C@@H]1[C@@H](OC(=O)c2ccc(C)[nH]2)[C@@H](O)[C@H](Oc2ccc3c(O)c(NC(=O)c4c[nH]c(C(=O)Nc5c(O)c6ccc(O[C@@H]7OC(C)(C)[C@H](OC)[C@@H](OC(=O)c8ccc(C)[nH]8)[C@H]7O)c(C)c6oc5=O)c4C)c(=O)oc3c2C)OC1(C)C [CA1]	HaCaT cells will eventually incur DNA damage and Parp cleavage	does not disrupt MCM interactions	displaces Psf1, Cdc45, and Ctf4 from Flag-Mcm2	tumor cell-specific increase in DNA damage signals (gamma-H2AX surrogate) and Parp cleavage	no phosphorylation changes	causes Cdc45 to dissociate from MCMs	does not disrupt MCM complexes	abolished	did not disrupt Psf1-3 interactions	sensitive to CA1, but require higher CA1 concentrations	MCM levels start to diminish	reducing RPA levels in a dose-dependent manner	reducing the chromatin-bound levels of Cdc45, Psf1, and Psf2	known to inhibit the bacterial type-2 topoisomerase, gyrase	–	–
CO[C@@H]1[C@@H](OC(N)=O)[C@@H](O)[C@H](Oc2ccc3c(O)c(NC(=O)c4ccc(O)c(CC=C(C)C)c4)c(=O)oc3c2C)OC1(C)C [novobiocin]	–	–	–	–	–	–	–	–	–	–	–	–	–	–	little effect until higher concentrations are tested	can inhibit a different anti-cancer target, DNA Polymerase-theta
